Measured values published in BindingDB's records for doi:10.1016/j.bioorg.2016.09.007 (Shaoyang University, 2016).
pIC50: −log10 of the molar value.

Target: T1, Polyphenol oxidase 1 [61-568] (Agaricus bisporus, UniProt Q00024)
T1 construct: 61-568
T1 sequence (Q00024 whole entry): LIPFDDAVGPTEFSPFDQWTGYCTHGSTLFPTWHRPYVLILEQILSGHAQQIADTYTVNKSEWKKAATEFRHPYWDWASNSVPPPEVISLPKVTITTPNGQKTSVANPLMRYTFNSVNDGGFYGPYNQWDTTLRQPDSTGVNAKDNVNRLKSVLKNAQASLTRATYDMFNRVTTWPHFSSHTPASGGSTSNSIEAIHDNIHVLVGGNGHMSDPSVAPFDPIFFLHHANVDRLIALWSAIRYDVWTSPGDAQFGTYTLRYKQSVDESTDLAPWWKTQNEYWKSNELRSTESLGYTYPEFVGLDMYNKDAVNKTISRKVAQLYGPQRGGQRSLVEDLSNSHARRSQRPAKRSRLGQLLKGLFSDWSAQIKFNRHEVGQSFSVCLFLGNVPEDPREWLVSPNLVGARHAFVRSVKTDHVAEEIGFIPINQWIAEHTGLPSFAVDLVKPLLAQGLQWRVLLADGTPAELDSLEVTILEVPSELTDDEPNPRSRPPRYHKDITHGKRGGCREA
Test: Tyrosinase Activity Assay
Conditions: pH 6.8
Procedure: Briefly, 1,3,4-thiadiazole derivatives were tested for diphenolase inhibitory activity of tyrosinase using L-DOPA (dihydroxyphenylalanine) as substrate. All the compounds were dissolved in DMSO and its final concentration in the reaction mixture was 2.0%. Thirty units of mushroom tyrosinase (0.5 mg/ml) were first pre-incubated with the compounds, in 50 mM phosphate buffer (pH 6.8), for 10 min at 25 °C. Then the L-DOPA (0.5 mM) was added to the reaction mixture and the enzyme reaction was continuously monitored by measuring the change in absorbance at 475 nm of formation of the DOPA chrome for 1 min.

SMILES | pIC50
COc1cc(OC)c(C=Nc2nnc(S)s2)c(OC)c1 [2-((2,4,6-Trimethoxybenzylidene)amino)-5-mercapto-1,3,4-thiadiazole (16)] | 6.04
Fc1ccccc1C=Nc1nnc(S)s1 [2-((2-Fluorobenzylidene)amino)-5-mercapto-1,3,4-thiadiazole (2)] | 6.12
COc1ccccc1C=Nc1nnc(S)s1 [2-((2-Methoxybenzylidene)amino)-5-mercapto-1,3,4-thiadiazole (10)] | 6.13
O=[N+]([O-])c1ccccc1C=Nc1nnc(S)s1 [2-((2-Nitrobenzylidene)amino)-5-mercapto-1,3,4-thiadiazole (9)] | 6.17
Sc1nnc(N=Cc2ccc(Cl)c(Cl)c2)s1 [2-((3,4-Dichlorobenzylidene)amino)-5-mercapto-1,3,4-thiadiazole (5)] | 5.44
COc1cc(C=Nc2nnc(S)s2)cc(OC)c1 [2-((3,5-Dimethoxybenzylidene)amino)-5-mercapto-1,3,4-thiadiazole (11)] | 5.27
Sc1nnc(N=Cc2cccc(Cl)c2)s1 [2-((3-Chlorobenzylidene)amino)-5-mercapto-1,3,4-thiadiazole (3)] | 5.32
CC(C)(C)c1ccc(C=Nc2nnc(S)s2)cc1 [2-((4-(Tert-butyl)benzylidene)amino)-5-mercapto-1,3,4-thiadiazole (8)] | 5.86
Sc1nnc(N=Cc2ccc(Cl)cc2)s1 [2-((4-Chlorobenzylidene)amino)-5-mercapto-1,3,4-thiadiazole (4)] | 5.61
Oc1ccc(Cl)cc1C=Nc1nnc(SCc2ccccc2)s1 [2-(((5-(Benzylthio)-1,3,4-thiadiazol-2-yl)imino)methyl)-4-chlorophenol (17)] | 3.61
Oc1ccccc1C=Nc1nnc(S)s1 [2-(((5-Mercapto-1,3,4-thiadiazol-2-yl)imino)methyl)phenol (12)] | 6.11
Sc1nnc(N=Cc2ccccc2)s1 [2-(Benzylideneamino)-5-mercapto-1,3,4-thiadiazole (1)] | 4.31
COc1cc(C=Nc2nnc(S)s2)cc(OC)c1O [4-(((5-Mercapto-1,3,4-thiadiazol-2-yl)imino)methyl)-2,6-dimethoxyphenol (15)] | 6.33
COc1cc(C=Nc2nnc(S)s2)ccc1O [4-(((5-Mercapto-1,3,4-thiadiazol-2-yl)imino)methyl)-2-methoxyphenol (14)] | 7.44
Oc1ccc(C=Nc2nnc(S)s2)c(O)c1 [4-(((5-Mercapto-1,3,4-thiadiazol-2-yl)imino)methyl)benzene-1,3-diol (13)] | 6.59
Oc1ccc(Br)cc1C=Nc1nnc(S)s1 [4-Bromo-2-(((5-mercapto-1,3,4-thiadiazol-2-yl)imino)methyl)phenol (7)] | 5.71
Oc1ccc(Cl)cc1C=Nc1nnc(S)s1 [4-Chloro-2-(((5-mercapto-1,3,4-thiadiazol-2-yl)imino)methyl)phenol (6)] | 5.76
